Patent US11339130B1 (Blade Therapeutics, Inc., priority 2016, dated 2022)
pIC50: −log10 of the molar value. Read-outs that look alike come from different tables or passages of the source.

How the values were obtained:
[1] = target: T1, Human Calpain 9/NS1 (Homo sapiens, UniProt O14815); assay: Calpain inhibition continuous fluorescence (FRET) assay, Human Calpain 9/NS1; type: biochemical
T1 sequence (O14815 1-690): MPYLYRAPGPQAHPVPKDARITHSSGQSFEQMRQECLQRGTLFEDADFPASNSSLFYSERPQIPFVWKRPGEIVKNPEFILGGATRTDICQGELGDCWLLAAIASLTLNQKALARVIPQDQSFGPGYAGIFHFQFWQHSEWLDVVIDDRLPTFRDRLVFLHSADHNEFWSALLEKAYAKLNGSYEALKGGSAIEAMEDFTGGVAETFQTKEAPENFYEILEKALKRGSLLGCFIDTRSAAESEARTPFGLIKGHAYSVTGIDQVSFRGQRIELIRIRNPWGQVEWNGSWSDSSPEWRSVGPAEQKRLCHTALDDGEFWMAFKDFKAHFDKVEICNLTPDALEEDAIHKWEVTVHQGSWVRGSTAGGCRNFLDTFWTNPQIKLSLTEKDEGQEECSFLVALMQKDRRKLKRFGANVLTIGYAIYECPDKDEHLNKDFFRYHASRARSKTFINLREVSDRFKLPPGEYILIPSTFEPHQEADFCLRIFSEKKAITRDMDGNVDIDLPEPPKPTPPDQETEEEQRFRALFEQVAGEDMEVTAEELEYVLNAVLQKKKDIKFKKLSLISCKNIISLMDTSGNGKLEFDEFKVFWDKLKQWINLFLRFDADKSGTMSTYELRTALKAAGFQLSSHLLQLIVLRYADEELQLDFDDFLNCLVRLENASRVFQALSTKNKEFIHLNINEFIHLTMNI
T1 sequence (P04632 1-268 partner): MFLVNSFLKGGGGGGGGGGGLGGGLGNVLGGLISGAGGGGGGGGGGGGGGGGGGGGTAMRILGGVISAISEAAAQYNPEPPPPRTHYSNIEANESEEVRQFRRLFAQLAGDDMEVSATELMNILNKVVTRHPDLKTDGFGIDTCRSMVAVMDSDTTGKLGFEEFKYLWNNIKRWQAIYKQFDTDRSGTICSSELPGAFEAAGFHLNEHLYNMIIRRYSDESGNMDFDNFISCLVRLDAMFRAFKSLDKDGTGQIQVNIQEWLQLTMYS
How it was run: (§1)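 Buffer 50 mM Tris pH 7.5/100 mM NaCl/1 mM DTT; enzyme + cpd preinc 25C; start w/ FRET substrate + CaCl2; kinetic 490/520 nm, 10 min; slopes 1-5 min; 4-PL IC50.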

[2] = tested on: Calpain activity in SH-SY5Y cells (SBDP-150); assay: SH-SY5Y Spectrin western blot assay (SBDP-150 breakdown product, A23187-induced); type: cell-based; details: Homo sapiens, read-out: SH-SY5Y Spectrin IC50
[3] = tested on: Calpain activity in SH-SY5Y cells; assay: SH-SY5Y + AMC fluorescence assay (Suc-LLVY-AMC substrate); type: cell-based; details: read-out: SH-SY5Y + AMC IC50
[4] = target: T2, Human Calpain 2/NS1 (Homo sapiens, UniProt P17655); assay: Calpain inhibition continuous fluorescence (FRET) assay, Human Calpain 2/NS1; type: biochemical
T2 sequence (P17655 1-700): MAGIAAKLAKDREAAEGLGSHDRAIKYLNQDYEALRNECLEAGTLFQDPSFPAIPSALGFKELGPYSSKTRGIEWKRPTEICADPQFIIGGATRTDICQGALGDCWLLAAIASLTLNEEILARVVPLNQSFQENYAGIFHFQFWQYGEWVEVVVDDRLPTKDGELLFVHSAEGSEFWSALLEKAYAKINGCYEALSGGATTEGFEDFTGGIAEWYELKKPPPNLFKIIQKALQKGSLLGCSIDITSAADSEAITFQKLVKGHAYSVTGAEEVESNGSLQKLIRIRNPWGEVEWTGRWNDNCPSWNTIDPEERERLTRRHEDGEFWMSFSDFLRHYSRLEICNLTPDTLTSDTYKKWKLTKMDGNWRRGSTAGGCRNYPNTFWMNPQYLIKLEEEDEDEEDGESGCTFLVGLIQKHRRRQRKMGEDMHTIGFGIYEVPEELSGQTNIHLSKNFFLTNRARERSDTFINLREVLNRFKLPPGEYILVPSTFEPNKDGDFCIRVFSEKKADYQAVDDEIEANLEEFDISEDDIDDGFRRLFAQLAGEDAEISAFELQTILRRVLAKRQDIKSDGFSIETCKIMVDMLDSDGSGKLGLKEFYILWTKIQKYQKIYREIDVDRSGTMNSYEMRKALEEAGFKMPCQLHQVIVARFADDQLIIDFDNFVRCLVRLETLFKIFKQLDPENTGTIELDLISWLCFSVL
T2 sequence (P04632 1-268 partner): T1 sequence (P04632 1-268 partner)
How it was run: as §1

[5] = target: T3, Human Calpain 1/NS1 (Homo sapiens, UniProt P07384); assay: Calpain inhibition continuous fluorescence (FRET) assay, Human Calpain 1/NS1; type: biochemical
T3 sequence (P07384 1-714): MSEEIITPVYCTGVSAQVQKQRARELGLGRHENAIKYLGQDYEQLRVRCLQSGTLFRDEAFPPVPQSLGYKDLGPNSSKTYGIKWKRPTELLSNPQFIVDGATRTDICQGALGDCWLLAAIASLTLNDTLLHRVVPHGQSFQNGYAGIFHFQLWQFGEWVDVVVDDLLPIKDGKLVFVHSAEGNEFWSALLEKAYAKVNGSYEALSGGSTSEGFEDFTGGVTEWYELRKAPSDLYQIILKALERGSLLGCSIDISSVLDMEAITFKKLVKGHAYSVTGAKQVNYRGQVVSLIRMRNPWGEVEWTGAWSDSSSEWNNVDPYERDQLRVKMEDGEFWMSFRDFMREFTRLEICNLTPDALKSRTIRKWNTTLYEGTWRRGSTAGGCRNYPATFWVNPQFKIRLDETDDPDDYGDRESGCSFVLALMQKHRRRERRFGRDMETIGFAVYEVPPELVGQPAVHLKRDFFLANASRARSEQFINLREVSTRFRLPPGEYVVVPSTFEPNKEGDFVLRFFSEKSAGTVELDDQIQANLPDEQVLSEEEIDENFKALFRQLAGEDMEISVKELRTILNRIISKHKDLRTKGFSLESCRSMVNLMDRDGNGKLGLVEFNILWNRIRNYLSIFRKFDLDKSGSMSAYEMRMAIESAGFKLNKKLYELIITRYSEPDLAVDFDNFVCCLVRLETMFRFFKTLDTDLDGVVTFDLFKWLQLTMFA
T3 sequence (P04632 1-268 partner): T1 sequence (P04632 1-268 partner)
How it was run: as §1

[6] = read-out: Human Calpain 9/NS1 IC50
[7] = SH-SY5Y cells, A23187-induced SBDP-150, western blot
[8] = read-out: Human Calpain 2/NS1 IC50
[9] = read-out: Human Calpain 1/NS1 IC50

| Compound | pIC50 [1, 6] | pIC50 [2, 7] | pIC50 [3] | pIC50 [4, 8] | pIC50 [5, 9] | pIC50 [1] | pIC50 ([2]; SH-SY5Y) | pIC50 [4] | pIC50 [5] |
| --- | --- | --- | --- | --- | --- | --- | --- | --- | --- |
| Cn1cc(C(=O)N[C@H](C=O)Cc2ccccc2)c(-c2cccc(F)c2)n1 [Compound 328, (S)-3-(3-fluorophenyl)-1-methyl-N-(1-oxo-3-phenylpropan-2-yl)-1H-pyrazole-4-carboxamide] | > 5.52 | 4.60 to 5.00 | < 4.60 | > 5.52 | > 5.52 | – | – | – | – |
| Cc1cccc(-c2nn(C)cc2C(=O)N[C@H](C=O)Cc2ccccc2)c1 [Compound 329, (S)-1-methyl-N-(1-oxo-3-phenylpropan-2-yl)-3-(M-tolyl)-1H-pyrazole-4-carboxamide] | > 5.52 | < 4.60 | < 4.60 | > 5.52 | > 5.52 | – | – | – | – |
| O=C[C@H](Cc1ccccc1)NC(=O)c1cn(C2CC2)nc1-c1ccccc1 [Compound 330, (S)-1-cyclopropyl-N-(1-oxo-3-phenylpropan-2-yl)-3-phenyl-1H-pyrazole-4-carboxamide] | > 5.52 | 4.60 to 5.00 | 4.60 to 5.00 | > 5.52 | > 5.52 | – | – | – | – |
| Cc1cc(C)cc(C[C@H](NC(=O)c2cn(C)nc2-c2ccccc2)C(=O)C(N)=O)c1 [Compound 331] | > 5.52 | > 5.00 | < 4.60 | > 5.52 | > 5.52 | – | – | – | – |
| CC[C@H](NC(=O)c1cn(C)nc1-c1ccccc1)C(=O)C(N)=O [Compound 332, (S)—N-(1-amino-1,2-dioxopentan-3-yl)-1-methyl-3-phenyl-1H-pyrazole-4-carboxamide] | > 5.52 | < 4.60 | < 4.60 | > 5.52 | > 5.52 | – | – | – | – |
| CC[C@@H](C)[C@H](NC(=O)c1cn(C)nc1-c1ccccc1)C(=O)C(N)=O [Compound 333, N-((3S,4R)-1-amino-4-methyl-1,2-dioxohexan-3-yl)-1-methyl-3-phenyl-1H-pyrazole-4-carboxamide] | > 5.52 | < 4.60 | < 4.60 | > 5.52 | > 5.52 | – | – | – | – |
| Cn1cc(C(=O)N[C@@H](Cc2ccccc2)C(=O)C(=O)NCc2ncco2)c(-c2ccccc2)n1 [Compound 334, (S)-1-methyl-N-(4-((oxazol-2-ylmethyl)amino)-3,4-dioxo-1-phenylbutan-2-yl)-3-phenyl-1H-pyrazole-4-carboxamide] | > 5.52 | < 4.60 | > 5.00 | > 5.52 | > 5.52 | – | – | – | – |
| Cc1cc(C(=O)N[C@@H](Cc2ccccc2)C(=O)C(N)=O)n(-c2cccc(CNC(=O)Oc3ccccc3)c2)n1 [Compound 344, Phenyl (S)-(3-(5-((4-amino-3,4-dioxo-1-phenylbutan-2-yl)carbamoyl)-3-methyl-1H-pyrazol-1-yl)benzyl)carbamate] | – | – | 4.60 to 5.00 | – | – | > 5.52 | < 4.60 | > 5.52 | > 5.52 |

Second part, led by results:

| pIC50 [1, 6] | pIC50 [2, 7] | pIC50 [3] | pIC50 [4, 8] | pIC50 [5, 9] | Compound | pIC50 [1] | pIC50 ([2]; SH-SY5Y) | pIC50 [4] | pIC50 [5] |
| --- | --- | --- | --- | --- | --- | --- | --- | --- | --- |
| > 5.52 | > 5.00 | > 5.00 | > 5.52 | > 5.52 | CN(C)C(=O)CNC(=O)C(=O)[C@H](Cc1ccccc1)NC(=O)c1cn(C)nc1-c1ccccc1 [Compound 337, (S)—N-(4-((2-(dimethylamino)-2-oxoethyl)amino)-3,4-dioxo-1-phenylbutan-2-yl)-1-methyl-3-phenyl-1H-pyrazole-4-carboxamide] | – | – | – | – |
| > 5.52 | < 4.60 | > 5.00 | > 5.52 | > 5.52 | Cn1cc(C(=O)N[C@@H](Cc2ccccc2)C(=O)C(=O)NCCC(N)=O)c(-c2ccccc2)n1 [Compound 338, (S)—N-(4-((3-amino-3-oxopropyl)amino)-3,4-dioxo-1-phenylbutan-2-yl)-1-methyl-3-phenyl-1H-pyrazole-4-carboxamide] | – | – | – | – |
| > 5.52 | < 4.60 | 4.60 to 5.00 | > 5.52 | > 5.52 | Cn1cc(C(=O)N[C@@H](Cc2ccccc2)C(=O)C(=O)NCC(N)=O)c(-c2ccccc2)n1 [Compound 339, (S)—N-(4-((2-amino-2-oxoethyl)amino)-3,4-dioxo-1-phenylbutan-2-yl)-1-methyl-3-phenyl-1H-pyrazole-4-carboxamide] | – | – | – | – |
| 5.00 to 5.52 | < 4.60 | 4.60 to 5.00 | > 5.52 | > 5.52 | Cc1cc(C(=O)N[C@H](C=O)Cc2ccccc2)n(-c2ncccn2)n1 [Compound 341, (S)-3-methyl-N-(1-oxo-3-phenylpropan-2-yl)-1-(pyrimidin-2-yl)-1H-pyrazole-5-carboxamide] | – | – | – | – |
| > 5.52 | 4.60 to 5.00 | 4.60 to 5.00 | > 5.52 | > 5.52 | NC(=O)C(=O)C(Cc1ccccc1)NC(=O)c1cc(C(F)(F)C(F)(F)F)nn1-c1ccccc1 (stereo not drawn) [Compound 342, N-(4-amino-3,4-dioxo-1-phenylbutan-2-yl)-3-(perfluoroethyl)-1-phenyl-1H-pyrazole-5-carboxamide] | – | – | – | – |
| > 5.52 | 4.60 to 5.00 | < 4.60 | > 5.52 | > 5.52 | NC(=O)C(=O)C(Cc1ccccc1)NC(=O)c1c(Cl)cnn1-c1ncccn1 (stereo not drawn) [Compound 347, N-(4-amino-3,4-dioxo-1-phenylbutan-2-yl)-4-chloro-1-(pyrimidin-2-yl)-1H-pyrazole-5-carb oxamide] | – | – | – | – |
| > 5.52 | < 4.60 | > 5.00 | > 5.52 | > 5.52 | Cc1cc(C(=O)NC(Cc2ccccc2)C(=O)C(N)=O)n(-c2ncccc2F)n1 (stereo not drawn) [Compound 348, N-(4-amino-3,4-dioxo-1-phenylbutan-2-yl)-1-(3-fluoropyridin-2-yl)-3-methyl-1H-pyrazole-5-carboxamide] | – | – | – | – |
